Molecules are shown by their SMILES. Where a name gives a salt, the structure may show the parent alone.

The target of data set [1] is T1, IRAK4 (Homo sapiens, UniProt Q9NWZ3).
T1 construct: expressed in transfected cells; host or cells: K562 IRAK4-HiBiT cells
T1 sequence (Q9NWZ3 1-460): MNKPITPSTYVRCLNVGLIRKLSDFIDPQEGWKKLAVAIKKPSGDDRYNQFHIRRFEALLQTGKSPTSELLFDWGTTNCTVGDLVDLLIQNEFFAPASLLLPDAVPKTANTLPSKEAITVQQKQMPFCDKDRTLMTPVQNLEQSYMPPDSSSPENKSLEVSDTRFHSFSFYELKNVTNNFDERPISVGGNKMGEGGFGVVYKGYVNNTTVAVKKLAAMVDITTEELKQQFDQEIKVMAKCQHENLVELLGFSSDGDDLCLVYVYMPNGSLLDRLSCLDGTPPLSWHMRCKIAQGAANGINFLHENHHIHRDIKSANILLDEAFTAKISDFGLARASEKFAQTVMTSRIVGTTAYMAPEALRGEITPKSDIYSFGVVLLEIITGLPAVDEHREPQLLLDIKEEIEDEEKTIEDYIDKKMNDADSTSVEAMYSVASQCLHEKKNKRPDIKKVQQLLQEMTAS
Nature of the data set: Target protein degradation effect in K562 IRAK4-HiBiT cells (Nano-Glo HiBiT). The format is cell-based. The following applies: incubated 16 to 18 hours. The method, then: Experimental purpose: In this experiment, the degradation effect of the test compound on the target protein IRAK4 in K562 IRAK4-HiBiT cells was detected.
• Cells: K562 IRAK4-HiBiT cells • Culture media: RPMI 1640+10% FBS+2 mM GlutaMax+1 mM sodium pyruvate+penicillin/streptomycin • Positive control: 1000 nM; negative control: 0.1% DMSO
• (1). The compound to be tested in powder form was dissolved in DMSO to 10 mM as a storage concentration, and 9 μL of the 10 mM compound to be tested was manually pipetted to column 1 and column 13 of an LDV plate using a pipette; • (2). 6 μL of DMSO was added to columns 2 to 12 and 14 to 24 using Multidrop Combi; [0688](3). the compound to be tested was 3-fold diluted (3 μL+6 μL) from columns 1 to 11 and 13 to 23 using Bravo; • (4). 25 nL of compound solution (columns 1 to 24 of the LDV plate) was transferred to an assay plate using Echo according to the plate layout; • (5). 25 nL of 1 mM positive control solution was transferred to the assay plate as a 100% degradation control (i.e., LC, HPE) and 25 nL of DMSO was transferred to the assay plate as a 0% control (i.e., HC, ZPE) using Echo.
• (1). The cell culture medium was discarded, and the cells were washed once with DPBS, digested with trypsin, and counted to prepare a cell suspension of […]; • (2). 25 µL/well of cell suspension was added to the assay plate containing the compound to be tested using Multidrop Combi at medium speed; • (3). the assay plate containing cells was returned to an incubator with 5% CO2 at 37° C. and incubated for 16 to 18 hours.
• (1). 25 µL/well of assay reagent (NanoGlo lysis buffer+substrate+LgBit protein) was added to the assay plate using Multidrop Combi at high speed, and the plate was shaken for 10 minutes; • (2). the plate was centrifuged at 2000 rpm for 1 minute to remove air bubbles; • (3). the plate was read on Envision using US Luminescence detection method.
The inhibition rate (IR) of the test compound was calculated using the following formula: IR (%)=(RLU vehicle control−RLU compound)/(RLU vehicle control−RLU positive control)×100%, and the vehicle control is the blank control. The inhibition rates of compounds at different concentrations were calculated in Excel, and then XLFit software was used to plot inhibition curves and calculate relevant parameters, including minimum inhibition rate, maximum inhibition rate, and DC50.

Data set [2] is described as follows: Pharmacokinetic evaluation in mice, experimental operation A (CD-1). The format is in vivo. Conditions: CD-1 mice; for bioavailability / clearance / Vd / half-life: male, mouse, plasma; for bioavailability: IV 1 mg/kg, PO 10 mg/kg, read-out: Bioavailability F; for Vd: read-out: Apparent volume of distribution; for half-life: read-out: Elimination half-life (converted). An excerpt:
In this study, CD-1 or C57BL/6N male mice were selected as test animals, and LC/MS/MS method was used to quantify plasma concentrations of the test compound intravenously injected or intragastrically administered to mice at different time points, so as to evaluate the pharmacokinetic profile of the test drug in mice.
CD-1 mice (male, 20 to 35 g, 7 to 10 weeks old, Beijing Vital River) or C57BL/6N mice (male, 20 to 30 g, 7 to 10 weeks old, Beijing Vital River)
A clarified solution or suspension of the test compound was injected into CD-1 mice (overnight fasting) via the tail vein (vehicle: 10% DMSO/10% Solutol/80% H2O), or intragastrically administered into CD-1 mice (overnight fasting). For intravenous injection, blood was collected from the saphenous vein at 0 h (pre-administration) and 0.083 h, 0.25 h, 0.5 h, 1 h, 2 h, 4 h, 8 h, and 24 h after administration, and placed in an anticoagulant tube added with EDTA-K2. The mixture was thoroughly vortexed and mixed, and centrifuged at 3200 g for 10 minutes at 4° C. to obtain plasma. For oral administration, blood was collected from the saphenous vein at 0.25 h, 0.5 h, 1 h, 2 h, 4 h, 8 h, and 24 h after administration, and placed in an anticoagulant tube added with EDTA-K2 (Jiangsu Kangjian Medical Apparatus Co., Ltd.). The mixture was thoroughly vortexed and mixed, and centrifuged at 3200 g for 10 minutes at 4° C. to obtain plasma. Plasma concentrations were determined by LC-MS/MS method, and relevant pharmacokinetic parameters were calculated using Phoenix WinNonlin™ Version 6.3 (Pharsight, Mountain View, CA) pharmacokinetic software with non-compartmental model linear-log trapezoidal method.

The mark [3] stands for this setting: Intragastric administration 10 mg/kg.

Consider `O=C1CCC(c2coc3cc(NC(=O)CN4CCN(C[C@H]5CC[C@H](n6cc(NC(=O)c7cnn8ccc(N9C[C@H]%10C[C@@H]9CO%10)nc78)c(C(F)F)n6)CC5)CC4)ccc23)C(=O)N1` (stereo partly drawn) [Hydrochloride of WX002], for which, in data set [1], it took 24.3 nM to reach half-maximal degradation (DC50) and the Maximum inhibition rate is 56.72%.

With `O=C1CCC(c2coc3c(NC(=O)C(F)(F)C4CCN(C[C@H]5CC[C@H](n6cc(NC(=O)c7cnn8ccc(N9C[C@H]%10C[C@@H]9CO%10)nc78)c(C(F)F)n6)CC5)CC4)cccc23)C(=O)N1` (stereo partly drawn) [Hydrochloride of WX016], in data set [1], half-maximal degradation (DC50) was put at 34.2 nM and the Maximum inhibition rate is 112.11%.

For the compound `O=C1CCC(c2coc3c(C#CCOC4CCN(C[C@H]5CC[C@H](n6cc(NC(=O)c7cnn8ccc(N9C[C@H]%10C[C@@H]9CO%10)nc78)c(C(F)F)n6)CC5)CC4)cccc23)C(=O)N1` (stereo partly drawn) [Hydrochloride of WX003], in data set [1], it took 25.5 nM to reach half-maximal degradation (DC50) and the Maximum inhibition rate came to 100.06%. In data set [2] (setting [3]), the “Area under the drug-time curve (0-inf)” value is 4.83 µM·h, the Peak concentration is 0.61 µM and the “Time to peak concentration” value is 4.0 h. Also, in data set [2] (Intravenous injection 1 mg/kg), the “Area under the drug-time curve (0-inf)” value was found to be 1.72 µM·h, the clearance was determined as 11.7 mL/min/kg, the Vd was 1.71 L/kg and the half-life was 1.74 h. Also, the bioavailability in data set [2] was 28.2%.

For `O=C1CCC(c2noc3c(NC(=O)C(F)(F)C4CCN(C[C@H]5CC[C@H](n6cc(NC(=O)c7cnn8ccc(N9C[C@H]%10C[C@@H]9CO%10)nc78)c(C(F)F)n6)CC5)CC4)cccc23)C(=O)N1` (stereo partly drawn) [Hydrochloride of WX017], in data set [1], the DC50 worked out at 7.02 nM and the Maximum inhibition rate was 115.78%.

On to `O=C1CCC(c2noc3c(CC(=O)NC4CCN(C[C@H]5CC[C@H](n6cc(NC(=O)c7cnn8ccc(N9C[C@H]%10C[C@@H]9CO%10)nc78)c(C(F)F)n6)CC5)CC4)cccc23)C(=O)N1` (stereo partly drawn) [Formate of WX023], for which, in data set [1], it took 2.55 nM to reach half-maximal degradation (DC50) and the Maximum inhibition rate is on record as 103.01%.

As to `O=C1CCC(c2coc3ccc4c(NC(=O)CN5CCN(C[C@H]6CC[C@H](n7cc(NC(=O)c8cnn9ccc(N%10C[C@H]%11C[C@@H]%10CO%11)nc89)c(C(F)F)n7)CC6)CC5)cccc4c23)C(=O)N1` (stereo partly drawn) [Hydrochloride of WX010], in data set [1], the DC50 was determined as 6.54 nM and the Maximum inhibition rate came to 74.90%.

With `O=C1CCC(c2noc3c(CCCOC4CCN(C[C@H]5CC[C@H](n6cc(NC(=O)c7cnn8ccc(N9C[C@H]%10C[C@@H]9CO%10)nc78)c(C(F)F)n6)CC5)CC4)cccc23)C(=O)N1` (stereo partly drawn) [Hydrochloride of WX022], in data set [1], the DC50 was 7.14 nM and the Maximum inhibition rate is 103.04%.

Regarding `O=C1CCC(c2coc3c(NC(=O)CN4CCN(C[C@H]5CC[C@H](n6cc(NC(=O)c7cnn8ccc(N9C[C@H]%10C[C@@H]9CO%10)nc78)c(C(F)F)n6)CC5)CC4)cccc23)C(=O)N1` (stereo partly drawn) [Hydrochloride of WX006], in data set [1], half-maximal degradation (DC50) was put at 12.9 nM and the Maximum inhibition rate is given as 97.11%. In data set [2] (setting [3]), the “Area under the drug-time curve (0-inf)” value came out at 7.73 µM·h, the Peak concentration amounted to 1.73 µM and the “Time to peak concentration” value was found to be 1.0 h. Further, in data set [2] (Intravenous injection 1 mg/kg), the “Area under the drug-time curve (0-inf)” value came to 1.18 µM·h, the clearance turned out to be 16.8 mL/min/kg, the Vd was 1.47 L/kg and the half-life was 1.03 h. Moreover, in data set [2], the bioavailability amounted to 65.6%.

`O=C1CCC(c2noc3c(CCCN4CCN(C[C@H]5CC[C@H](n6cc(NC(=O)c7cnn8ccc(N9C[C@H]%10C[C@@H]9CO%10)nc78)c(C(F)F)n6)CC5)CC4)cccc23)C(=O)N1` (stereo partly drawn) [Hydrochloride of WX020]: in data set [1], it took 5.43 nM to reach half-maximal degradation (DC50) and the Maximum inhibition rate is on record as 100.80%.

As for `O=C1CCC(c2noc3ccc4c(NC(=O)CN5CCN(C[C@H]6CC[C@H](n7cc(NC(=O)c8cnn9ccc(N%10C[C@H]%11C[C@@H]%10CO%11)nc89)c(C(F)F)n7)CC6)CC5)cccc4c23)C(=O)N1` (stereo partly drawn) [Hydrochloride of WX014], in data set [1], it took 4.29 nM to reach half-maximal degradation (DC50) and the Maximum inhibition rate was 85.62%.

On to `O=C1CCC(c2noc3c(NC(=O)CN4CCC(CN5CCC(n6cc(NC(=O)c7cnn8ccc(N9C[C@H]%10C[C@@H]9CO%10)nc78)c(C(F)F)n6)CC5)CC4)cccc23)C(=O)N1` (stereo partly drawn) [Hydrochloride of WX021], for which, in data set [1], the DC50 was 2.59 nM and the Maximum inhibition rate was 102.77%.

Turning to `O=C1CCC(c2noc3c(NC(=O)CN4CCN(C[C@H]5CC[C@H](n6cc(NC(=O)c7cnn8ccc(N9CC%10CCC(C9)O%10)nc78)c(C(F)F)n6)CC5)CC4)cccc23)C(=O)N1` (stereo partly drawn) [Formate of WX018], in data set [1], the DC50 worked out at 9.11 nM and the Maximum inhibition rate is recorded as 97.79%.

Take `O=C1CCC(c2noc3c(NC(=O)CN4CCC(O[C@H]5CC[C@H](n6cc(NC(=O)c7cnn8ccc(N9C[C@H]%10C[C@@H]9CO%10)nc78)c(C(F)F)n6)CC5)CC4)cccc23)C(=O)N1` (stereo partly drawn) [WX024]: in data set [1], half-maximal degradation (DC50) was put at 1.37 nM and the Maximum inhibition rate is 109.35%.

These data come from patent US20250127905A1, “GLUTARIMIDE COMPOUND AND USE THEREOF” (MEDSHINE DISCOVERY INC., priority 2021, published 2025).
